Results from PMC6522510 (Nature Communications, 2019).

Experiments:
Parameters in all cases: species or system AML cell lines (8); Primary HTS, single concentration about 10 uM, Cell Titer Glo viability; log10 luminescence, per cent inhibition relative to cycloheximide control
Settings in all cases: 72 h, relative to cycloheximide control, log10 luminescence; inhibitor
CHRF288-11 = system: CHRF288-11
CMK = system: CMK
CMS = system: CMS
M07e = system: M07e
ML-2 = system: ML-2
MOLM-13 = system: MOLM-13
MV4-11 = system: MV4-11
U937 = system: U937

| Compound | CHRF288-11 %inh (CHRF288-11) | CMK %inh (CMK) | CMS %inh (CMS) | M07e %inh (M07e) | ML-2 %inh (ML-2) | MOLM-13 %inh (MOLM-13) | MV4-11 %inh (MV4-11) | U937 %inh (U937) |
| --- | --- | --- | --- | --- | --- | --- | --- | --- |
| COC(=O)Nc1nc2ccc(S(=O)(=O)c3ccc(NC(=O)Nc4cc(C(F)(F)F)ccc4F)cc3)cc2[nH]1 [SJ000573094-1, T229/157/1] | 9.928% | 2.078% | 3.097% | 3.593% | -2.541% | 1.464% | -0.02364% | 1.083% |
| CN(C)c1cc2c(Nc3ccc4nc(Cc5ccccc5)[nH]c4c3)ncnc2cn1 [SJ000573096-1, R142/81/1] | -0.8109% | 4.629% | 0.4943% | -6.495% | -0.4937% | 19.45% | 3.394% | -0.02909% |
| Clc1ccc(-c2nn3ncccc3c2-c2ccnc(Nc3ccccc3)n2)cc1 [SJ000573097-1, U17838/189/2] | 6.42% | 3.667% | 3.744% | -1.226% | -2.244% | 0.7466% | 3.385% | -1.31% |
| Cc1ccc(NC(=O)CC2CC2)cc1-c1ccc(C(=O)NCC2CC2)cc1 [SJ000573098-1, R7387/20/3] | 2.428% | 4.183% | 1.599% | -0.8105% | -2.089% | 0.2753% | 0.255% | 1.321% |
| CN(c1ccc(NC(=O)Nc2c(Cl)cccc2Cl)cc1)c1ccnc(Nc2cccc(CS(C)(=O)=O)c2)n1 [SJ000573099-1, U17983/31/1] | 15.56% | 37.49% | 10.65% | 50.22% | 37.92% | 85.25% | 78.59% | 19.94% |
| CCc1nn2ncccc2c1-c1ccnc(NC2CC2)n1 [SJ000573100-1, U16767/17/1] | 0.1094% | -4.45% | 3.597% | 1.664% | 0.1681% | 5.368% | 0.7749% | 0.5788% |
| COc1cc2ncnc(Nc3ccc4c(cnn4Cc4ccccc4)c3)c2cc1OC [SJ000573101-1, R143/104/1] | 5.092% | 0.8373% | 32.19% | 1.834% | -2.157% | 25.02% | 12.83% | 6.042% |
| CCS(=O)(=O)c1ccc(OC)c(Nc2nccc(N(C)c3ccc4c(C)n[nH]c4c3)n2)c1 [SJ000573103-1, U20513/4/2] | 5.806% | 6.86% | 9.95% | 2.221% | -1.801% | 9.892% | 5.714% | 1.879% |
| [O-][S+]1CCN(Cc2ccc(-c3ccc4ncnc(Nc5ccc(OCc6ccccc6)c(Cl)c5)c4c3)o2)CC1 [SJ000573105-1, U14859/143/2] | 0.5474% | 4.729% | -1.021% | -0.2789% | -0.9946% | 4.138% | 5.18% | 1.842% |
| CS(=O)(=O)CCNCc1ccc(-c2ccc3ncnc(Nc4ccc(OCc5cccc(C(F)(F)F)c5)cc4)c3c2)o1 [SJ000573107-1, U14801/49/2] | 2.523% | 3.779% | 0.378% | -0.9182% | 1.894% | 82.16% | 64.67% | -2.16% |
| CS(=O)(=O)Nc1ccc(-c2cc(-c3ccccc3)cc(C(N)=O)c2N)cc1 [SJ000573108-1, R12070/86/1] | 2.153% | -4.619% | -2.317% | 0.06792% | -0.5203% | -0.8297% | 0.1875% | -2.496% |
| N#Cc1ccc(Oc2nccc(-c3c(-c4ccc(F)cc4)ncn3C3CCNCC3)n2)cc1 [SJ000573110-1, JB27026-057C1] | 0.2466% | -0.241% | -2.544% | 7.948% | 1.756% | 1.125% | -1.125% | -2.466% |
| COc1c(C(N)=O)cc(-c2ccc(Cl)cc2)cc1-c1ccc(S(N)(=O)=O)cc1 [SJ000573112-1, R12706/72/1] | -3.227% | 7.525% | 5.358% | -1.128% | 3.182% | 6.365% | -1.028% | 1.708% |
| CS(=O)(=O)CCNCc1cc(-c2cc3c(Nc4ccc(OCc5cccc(F)c5)c(Cl)c4)ncnc3s2)cs1 [SJ000573113-1, U20258/167/2] | -4.074% | 4.188% | 1.969% | 1.088% | -1.098% | 4.183% | 1.359% | 1.681% |
| COc1cccc(/C=N/Nc2ncnc3c2cnn3-c2cccc(OC)c2)c1 [SJ000573114-1, U19125/70/2] | -4.16% | 1.014% | 0.5792% | -0.7733% | -2.362% | 0.5296% | -0.9072% | -1.619% |
| COc1cc(Nc2ncc(-c3ccccc3)o2)cc(OC)c1 [SJ000573115-1, U21834/32/1] | -9.037% | 3.561% | -1.309% | 1.992% | 2.252% | 74.91% | 75.56% | 0.9564% |
| O=S(=O)(CCOCc1ccc(-c2ccc3ncnc(Nc4ccc(OCc5cccc(F)c5)c(Cl)c4)c3c2)o1)c1ccccc1 [SJ000573116-1, U15872/4/1] | -0.6594% | -5.52% | 1.936% | -2.095% | -0.1863% | -1.247% | 2.149% | -1.869% |
| COc1ccccc1Nc1ncc(-c2ccccc2)o1 [SJ000573117-1, U14961/90/1] | 5.085% | -0.2443% | -1.143% | 4.937% | 0.6262% | 90.67% | 83.21% | -2.759% |
| NC(=O)c1ccc(Oc2nccc(-c3c(-c4ccc(F)cc4)ncn3C3CCNCC3)n2)cc1 [SJ000573120-1, JB27193-061B1] | 0.2701% | 7.904% | -1.264% | -0.791% | 1.469% | 6.408% | 1.936% | 4.71% |
| Fc1cccc(COc2ccc(Nc3ncnc4sc(-c5cccs5)cc34)cc2Cl)c1 [SJ000573122-1, U22476/39/1] | -6.815% | 1.871% | -1.772% | -0.3704% | 0.7454% | 3.265% | -2.021% | 3.407% |
| Fc1ccc(-c2ncn(C3CCNCC3)c2-c2ccnc(Oc3ccc4c(c3)OCO4)n2)cc1 [SJ000573123-1, JB27026-196B1] | 7.293% | 13.54% | 0.7899% | 3.354% | 3.564% | 2.344% | 0.1546% | 5.059% |
| CS(=O)(=O)CCNCc1ccc(-c2ccc3ncnc(Nc4ccc(OCc5ccccc5)c(C(F)(F)F)c4)c3c2)o1 [SJ000573124-1, U14859/90/2] | -4.921% | -0.3954% | -0.5761% | -5.391% | 3.074% | 3.836% | -0.8429% | 1.669% |
